Assay results as given in the NIST ThermoML archive (doi:10.1016/j.jct.2018.11.014).
± gives the expanded uncertainty stated by the source.

Details: 101.33 kPa, Crystal, Vacuum adiabatic calorimetry

Compound | molar entropy (10 K) [J/K/mol] | molar entropy (20 K) [J/K/mol] | molar entropy (30 K) [J/K/mol] | molar entropy (40 K) [J/K/mol] | molar entropy (50 K) [J/K/mol] | molar entropy (60 K) [J/K/mol] | molar entropy (70 K) [J/K/mol] | molar entropy (80 K) [J/K/mol] | molar entropy (90 K) [J/K/mol] | molar entropy (100 K) [J/K/mol] | molar entropy (110 K) [J/K/mol] | molar entropy (120 K) [J/K/mol] | molar entropy (130 K) [J/K/mol] | molar entropy (140 K) [J/K/mol] | molar entropy (150 K) [J/K/mol] | molar entropy (160 K) [J/K/mol] | molar entropy (170 K) [J/K/mol] | molar entropy (180 K) [J/K/mol] | molar entropy (190 K) [J/K/mol] | molar entropy (200 K) [J/K/mol] | other results
O=C(CO)[C@H](O)[C@H](O)[C@H](O)CO [D-psicose] | 0.25 ± 0.02 | 2.96 ± 0.05 | 8.19 ± 0.14 | 14.69 ± 0.23 | 21.82 ± 0.34 | 29.28 ± 0.45 | 36.93 ± 0.57 | 44.67 ± 0.68 | 52.46 ± 0.83 | 60.26 ± 0.95 | 68.06 ± 1.1 | 75.83 ± 1.2 | 83.57 ± 1.3 | 91.28 ± 1.4 | 98.95 ± 1.5 | 106.58 ± 1.6 | 114.19 ± 1.8 | 121.76 ± 1.9 | 129.31 ± 2 | 136.83 ± 2.1 | molar entropy (210 K): 144.33 ± 2.2 J/K/mol; molar entropy (220 K): 151.81 ± 2.3 J/K/mol; molar entropy (230 K): 159.28 ± 2.4 J/K/mol; molar entropy (240 K): 166.73 ± 2.5 J/K/mol; molar entropy (250 K): 174.17 ± 2.6 J/K/mol; molar entropy (260 K): 181.61 ± 2.8 J/K/mol; molar entropy (270 K): 189.03 ± 2.9 J/K/mol; molar entropy (280 K): 196.45 ± 3 J/K/mol; molar entropy (290 K): 203.86 ± 3.1 J/K/mol; molar entropy (298.15 K): 209.9 ± 3.2 J/K/mol; molar entropy (300 K): 211.27 ± 3.2 J/K/mol; molar entropy (310 K): 218.67 ± 3.3 J/K/mol; molar entropy (320 K): 226.07 ± 3.4 J/K/mol; molar entropy (330 K): 233.48 ± 3.5 J/K/mol
O=C(CO)[C@@H](O)[C@H](O)[C@H](O)CO [D-fructose] | 0.22 ± 0.02 | 2.49 ± 0.05 | 7.15 ± 0.12 | 13.3 ± 0.21 | 20.28 ± 0.32 | 27.72 ± 0.43 | 35.42 ± 0.54 | 43.25 ± 0.66 | 51.17 ± 0.81 | 59.14 ± 0.93 | 67.11 ± 1.1 | 75.09 ± 1.2 | 83.05 ± 1.3 | 91 ± 1.4 | 98.92 ± 1.5 | 106.81 ± 1.6 | 114.68 ± 1.8 | 122.52 ± 1.9 | 130.34 ± 2 | 138.14 ± 2.1 | molar entropy (210 K): 145.91 ± 2.2 J/K/mol; molar entropy (220 K): 153.67 ± 2.3 J/K/mol; molar entropy (230 K): 161.42 ± 2.5 J/K/mol; molar entropy (240 K): 169.16 ± 2.6 J/K/mol; molar entropy (250 K): 176.89 ± 2.7 J/K/mol; molar entropy (260 K): 184.62 ± 2.8 J/K/mol; molar entropy (270 K): 192.35 ± 2.9 J/K/mol; molar entropy (280 K): 200.07 ± 3 J/K/mol; molar entropy (290 K): 207.79 ± 3.1 J/K/mol; molar entropy (298.15 K): 214.09 ± 3.2 J/K/mol; molar entropy (300 K): 215.52 ± 3.3 J/K/mol; molar entropy (310 K): 223.26 ± 3.4 J/K/mol; molar entropy (320 K): 231.02 ± 3.5 J/K/mol; molar entropy (330 K): 238.78 ± 3.6 J/K/mol
O=C(CO)[C@@H](O)[C@@H](O)[C@H](O)CO [D-(-)-tagatose] | 0.24 ± 0.02 | 2.37 ± 0.04 | 6.67 ± 0.12 | 12.43 ± 0.2 | 19.05 ± 0.3 | 26.17 ± 0.4 | 33.58 ± 0.52 | 41.15 ± 0.63 | 48.83 ± 0.78 | 56.57 ± 0.89 | 64.33 ± 1 | 72.1 ± 1.1 | 79.86 ± 1.2 | 87.6 ± 1.4 | 95.33 ± 1.5 | 103.03 ± 1.6 | 110.71 ± 1.7 | 118.38 ± 1.8 | 126.03 ± 1.9 | 133.66 ± 2 | molar entropy (210 K): 141.29 ± 2.1 J/K/mol; molar entropy (220 K): 148.91 ± 2.3 J/K/mol; molar entropy (230 K): 156.53 ± 2.4 J/K/mol; molar entropy (240 K): 164.14 ± 2.5 J/K/mol; molar entropy (250 K): 171.76 ± 2.6 J/K/mol; molar entropy (260 K): 179.37 ± 2.7 J/K/mol; molar entropy (270 K): 187 ± 2.8 J/K/mol; molar entropy (280 K): 194.64 ± 3 J/K/mol; molar entropy (290 K): 202.3 ± 3.1 J/K/mol; molar entropy (298.15 K): 208.54 ± 3.2 J/K/mol; molar entropy (300 K): 209.96 ± 3.2 J/K/mol; molar entropy (310 K): 217.63 ± 3.3 J/K/mol; molar entropy (320 K): 225.31 ± 3.4 J/K/mol; molar entropy (330 K): 232.99 ± 3.5 J/K/mol
